The molecules below were run against T1, AMPA receptor (human GluR1 flip/stargazin expressed in CHO-K1 cells) (Homo sapiens, UniProt P42261) (assay: AMPA receptor function enhancing activity using calcium influx as index). Conditions: test compound 30 μM with 3 mM glutamic acid, change in fluorescence level in 3 min, 100% = 3 mM glutamic acid + 300 μM cyclothiazide, 0% = 3 mM glutamic acid only.
T1 construct: expressed in transfected cells; host or cells: CHO-K1
Assay type: cell-based
How it was run: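 CHO-K1 clone stably co-expressing human GluR1 flip and stargazin, loaded with Calcium 4 dye plus probenecid. Compound at 30 μM was added with glutamate (3 mM final) and fluorescence change followed over 3 min. Activity is expressed as % of the 3 mM glutamate plus 300 μM cyclothiazide response, with glutamate alone as 0%.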

T1 sequence (P42261 19-906 isoform P42261-2 limits assumed): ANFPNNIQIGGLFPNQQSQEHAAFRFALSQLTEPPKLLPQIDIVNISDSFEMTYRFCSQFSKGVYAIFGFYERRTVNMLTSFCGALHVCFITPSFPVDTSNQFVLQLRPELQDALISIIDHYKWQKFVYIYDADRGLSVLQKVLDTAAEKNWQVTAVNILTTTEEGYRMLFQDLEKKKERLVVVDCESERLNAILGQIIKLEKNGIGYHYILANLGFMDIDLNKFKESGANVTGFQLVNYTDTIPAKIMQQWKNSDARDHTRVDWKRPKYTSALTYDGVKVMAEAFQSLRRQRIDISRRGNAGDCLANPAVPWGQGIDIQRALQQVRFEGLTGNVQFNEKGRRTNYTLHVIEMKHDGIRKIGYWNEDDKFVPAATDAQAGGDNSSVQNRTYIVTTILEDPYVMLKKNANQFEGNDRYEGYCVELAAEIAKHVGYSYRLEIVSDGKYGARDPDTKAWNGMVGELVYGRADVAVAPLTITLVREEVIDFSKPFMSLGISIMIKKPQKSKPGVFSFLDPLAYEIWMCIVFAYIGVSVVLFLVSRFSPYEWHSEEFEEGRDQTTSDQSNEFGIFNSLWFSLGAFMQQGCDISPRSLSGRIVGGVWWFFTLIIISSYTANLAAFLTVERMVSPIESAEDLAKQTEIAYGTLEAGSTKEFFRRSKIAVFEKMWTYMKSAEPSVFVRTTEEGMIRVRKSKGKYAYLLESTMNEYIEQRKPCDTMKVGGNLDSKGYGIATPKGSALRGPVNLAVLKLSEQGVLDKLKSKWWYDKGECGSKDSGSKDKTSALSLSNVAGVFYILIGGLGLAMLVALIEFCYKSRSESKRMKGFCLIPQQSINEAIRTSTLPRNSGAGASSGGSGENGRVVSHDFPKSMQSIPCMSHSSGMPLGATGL
T1 sequence (Q9Y698 whole entry partner): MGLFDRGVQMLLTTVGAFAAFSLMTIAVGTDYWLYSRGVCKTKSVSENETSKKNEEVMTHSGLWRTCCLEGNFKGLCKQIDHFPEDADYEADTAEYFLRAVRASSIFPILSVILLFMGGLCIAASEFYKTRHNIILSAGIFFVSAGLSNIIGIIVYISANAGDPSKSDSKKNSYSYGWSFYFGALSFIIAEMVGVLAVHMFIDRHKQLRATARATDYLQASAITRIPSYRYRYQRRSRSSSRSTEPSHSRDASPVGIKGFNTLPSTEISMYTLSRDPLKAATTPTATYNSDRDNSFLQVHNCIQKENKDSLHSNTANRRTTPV

SMILES | activity (%)
O=C1CCC(Oc2ccc(C3=CC=CN4CCS(=O)(=O)N=C34)cc2)CC1 [Example 244, 4-[4-(2,2-dioxido-3,4-dihydropyrido[2,1-c][1,2,4]thiadiazin-9-yl)phenoxy]cyclohexanone] | 76%
O=S1(=O)CCN2C=C(Cl)C=C(c3ccc(Oc4ccc(C(F)(F)F)nc4)cc3)C2=N1 [Example 256, 7-chloro-9-(4-{[6-(trifluoromethyl)pyridin-3-yl]oxy}phenyl)-3,4-dihydropyrido[2,1-c][1,2,4]thiadiazine 2,2-dioxide] | 86%
O=S1(=O)CCN2C=CC=C(c3ccc(Oc4ccc(C(F)(F)F)nc4)cc3)C2=N1 [Example 254, 9-(4-{[6-(trifluoromethyl)pyridin-3-yl]oxy}phenyl)-3,4-dihydropyrido[2,1-c][1,2,4]thiadiazine 2,2-dioxide] | 81%
O=S1(=O)CCN2C=CC=C(c3ccc(Oc4ccccc4C(F)(F)F)cc3)C2=N1 [Example 266, 9-{4-[2-(trifluoromethyl)phenoxy]phenyl}-3,4-dihydropyrido[2,1-c][1,2,4]thiadiazine 2,2-dioxide] | 84%
O=S1(=O)CCN2C=CC=C(C3CCC(c4ccccc4)CC3)C2=N1 (stereo not drawn) [Example 185, 9-(4-phenylcyclohexyl)-3,4-dihydropyrido[2,1-c][1,2,4]thiadiazine 2,2-dioxide] | 36%
O=S1(=O)CCN2C=CC=C(c3ccc(Oc4cnccc4C(F)(F)F)cc3)C2=N1 [Example 255, 9-(4-{[4-(trifluoromethyl)pyridin-3-yl]oxy}phenyl)-3,4-dihydropyrido[2,1-c][1,2,4]thiadiazine 2,2-dioxide] | 84%
CC1(C)Cc2cc(C3=CC=CN4CCS(=O)(=O)N=C34)ccc2C1=O [Example 287, 5-(2,2-dioxido-3,4-dihydropyrido[2,1-c][1,2,4]thiadiazin-9-yl)-2,2-dimethyl-2,3-dihydro-1H-inden-1-one] | 73%
O=S1(=O)CCN2C=CC=C(c3ccc(-n4cccn4)cc3)C2=N1 [Example 239, 9-[4-(1H-pyrazol-1-yl)phenyl]-3,4-dihydropyrido[2,1-c][1,2,4]thiadiazine 2,2-dioxide] | 88%
O=S1(=O)CCN2C=C(Cl)C=C(c3ccc(Oc4cncc(C(F)(F)F)c4)cc3)C2=N1 [Example 260, 7-chloro-9-(4-{[5-(trifluoromethyl)pyridin-3-yl]oxy}phenyl)-3,4-dihydropyrido[2,1-c][1,2,4]thiadiazine 2,2-dioxide] | 91%
COc1cc(Oc2ccc(C3=CC=CN4CCS(=O)(=O)N=C34)cc2)ccc1Cl [Example 154, 9-[4-(4-chloro-3-methoxyphenoxy)phenyl]-3,4-dihydropyrido[2,1-c][1,2,4]thiadiazine 2,2-dioxide] | 75%
O=S1(=O)CCN2C=C(Cl)C=C(c3ccc(OCC4CCCO4)cc3)C2=N1 (stereo not drawn) [Example 251, 7-chloro-9-[4-(tetrahydrofuran-2-ylmethoxy)phenyl]-3,4-dihydropyrido[2,1-c][1,2,4]thiadiazine 2,2-dioxide] | 81%

Next, values leading:

activity (%) | SMILES
69% | O=S1(=O)CCN2CCCC(c3ccc(C(F)(F)F)cc3)C2=N1 (stereo not drawn) [Example 177, 9-[4-(trifluoromethyl)phenyl]-3,4,6,7,8,9-hexahydropyrido[2,1-c][1,2,4]thiadiazine 2,2-dioxide]
78% | O=S1(=O)CCN2CCC[C@@H](c3ccc(Oc4cc(C(F)(F)F)ccc4Cl)cc3)C2=N1 [Example 160, (9S)-9-{4-[2-chloro-5-(trifluoromethyl)phenoxy]phenyl}-3,4,6,7,8,9-hexahydropyrido[2,1-c][1,2,4]thiadiazine 2,2-dioxide]
70% | O=S1(=O)CCN2CCCC(c3ccc(Oc4ccc(Br)c(C(F)(F)F)c4)cc3)C2=N1 (stereo not drawn) [Example 142, 9-{4-[4-bromo-3-(trifluoromethyl)phenoxy]phenyl}-3,4,6,7,8,9-hexahydropyrido[2,1-c][1,2,4]thiadiazine 2,2-dioxide]
85% | O=S1(=O)CCN2CCC[C@@H](c3ccc(Oc4cccc(Cl)c4)cc3)C2=N1 [Example 203, (9S)-9-[4-(3-chlorophenoxy)phenyl]-3,4,6,7,8,9-hexahydropyrido[2,1-c][1,2,4]thiadiazine 2,2-dioxide]
78% | CC(F)(F)c1ccc(C2CCCN3CCS(=O)(=O)N=C23)cc1 (stereo not drawn) [Example 231, 9-[4-(1,1-difluoroethyl)phenyl]-3,4,6,7,8,9-hexahydropyrido[2,1-c][1,2,4]thiadiazine 2,2-dioxide]
76% | Cc1cc(F)ccc1Oc1ccc(C2CCCN3CCS(=O)(=O)N=C23)cc1 (stereo not drawn) [Example 144, 9-[4-(4-fluoro-2-methylphenoxy)phenyl]-3,4,6,7,8,9-hexahydropyrido[2,1-c][1,2,4]thiadiazine 2,2-dioxide]
80% | O=S1(=O)CCN2CCCC(c3ccc(Oc4ccc(Cl)c(Cl)c4)cc3)C2=N1 (stereo not drawn) [Example 152, 9-[4-(3,4-dichlorophenoxy)phenyl]-3,4,6,7,8,9-hexahydropyrido[2,1-c][1,2,4]thiadiazine 2,2-dioxide]

Same assay, conditions: test compound 30 μM with glutamic acid final 3 mM, change in fluorescence in 3 min, 100% = 3 mM glutamic acid + 300 μM cyclothiazide, 0% = 3 mM glutamic acid only

SMILES | activity (%)
CCCCOc1ccc(C2CCCN3CCS(=O)(=O)N=C23)cc1F (stereo not drawn) [Example 352, 9-(4-butoxy-3-fluorophenyl)-3,4,6,7,8,9-hexahydropyrido[2,1-c][1,2,4]thiadiazine 2,2-dioxide] | 76%
CC(C)Cn1ccc2cc(C3=CC=CN4CCS(=O)(=O)N=C34)ccc21 [Example 293, 9-[1-(2-methylpropyl)-1H-indol-5-yl]-3,4-dihydropyrido[2,1-c][1,2,4]thiadiazine 2,2-dioxide] | 80%
Cc1ccc(C(C)(C)c2ccc(C3=CC=CN4CCS(=O)(=O)N=C34)cc2)cc1 [Example 329, 9-{4-[1-methyl-1-(4-methylphenyl)ethyl]phenyl}-3,4-dihydropyrido[2,1-c][1,2,4]thiadiazine 2,2-dioxide] | 82%
CC(C)c1ccc(/C=C/C2=CC=CN3CCS(=O)(=O)N=C23)cc1 [Example 51, 9-{(E)-2-[4-(1-methylethyl)phenyl]ethenyl}-3,4-dihydropyrido[2,1-c][1,2,4]thiadiazine 2,2-dioxide] | 87%
Cc1ccc(Oc2ccc(C3=CC=CN4CCS(=O)(=O)N=C34)cc2)cc1C [Example 134, 9-[4-(3,4-dimethylphenoxy)phenyl]-3,4-dihydropyrido[2,1-c][1,2,4]thiadiazine 2,2-dioxide] | 77%
Cc1ccc(C2=CC=CN3CCS(=O)(=O)N=C23)cc1F [Example 423, 9-(3-fluoro-4-methylphenyl)-3,4-dihydropyrido[2,1-c][1,2,4]thiadiazine 2,2-dioxide] | 80%
O=S1(=O)CCN2C=CC=C(c3ccc4ccccc4c3)C2=N1 [Example 46, 9-naphthalen-2-yl-3,4-dihydropyrido[2,1-c][1,2,4]thiadiazine 2,2-dioxide] | 80%
O=S1(=O)CCN2C=CC=C(c3ccc(OC4CCCCCC4)cc3)C2=N1 [Example 88, 9-[4-(cycloheptyloxy)phenyl]-3,4-dihydropyrido[2,1-c][1,2,4]thiadiazine 2,2-dioxide] | 75%
COc1ccc2ccc(OC3CCCN4CCS(=O)(=O)N=C34)cc2c1 (stereo not drawn) [Example 462, 9-[(7-methoxynaphthalen-2-yl)oxy]-3,4,6,7,8,9-hexahydropyrido[2,1-c][1,2,4]thiadiazine 2,2-dioxide] | 69%
O=S1(=O)CCN2CCCC(c3ccc(-c4ccccc4)c(F)c3)C2=N1 (stereo not drawn) [Example 97, 9-(2-fluorobiphenyl-4-yl)-3,4,6,7,8,9-hexahydropyrido[2,1-c][1,2,4]thiadiazine 2,2-dioxide] | 86%
CCCOc1ccc(C2CCCN3CCS(=O)(=O)N=C23)cc1F (stereo not drawn) [Example 350, 9-(3-fluoro-4-propoxyphenyl)-3,4,6,7,8,9-hexahydropyrido[2,1-c][1,2,4]thiadiazine 2,2-dioxide] | 74%

Continued, values first:

activity (%) | SMILES
88% | Cc1ccc(Oc2ccc(C3CCCN4CCS(=O)(=O)N=C34)cc2)cc1 (stereo not drawn) [Example 109, 9-[4-(4-methylphenoxy)phenyl]-3,4,6,7,8,9-hexahydropyrido[2,1-c][1,2,4]thiadiazine 2,2-dioxide]
69% | Cc1ccccc1Oc1ccc(C2CCCN3CCS(=O)(=O)N=C23)cc1 (stereo not drawn) [Example 116, 9-[4-(2-methylphenoxy)phenyl]-3,4,6,7,8,9-hexahydropyrido[2,1-c][1,2,4]thiadiazine 2,2-dioxide]
81% | Cc1cc(C2CCCN3CCS(=O)(=O)N=C23)ccc1-c1ccccc1 (stereo not drawn) [Example 103, 9-(2-methylbiphenyl-4-yl)-3,4,6,7,8,9-hexahydropyrido[2,1-c][1,2,4]thiadiazine 2,2-dioxide]
57% | O=S1(=O)CCN2CCCC(c3ccc(OCc4cccc(F)c4)cc3)C2=N1 (stereo not drawn) [Example 83, 9-{4-[(3-fluorobenzyl)oxy]phenyl}-3,4,6,7,8,9-hexahydropyrido[2,1-c][1,2,4]thiadiazine 2,2-dioxide]
86% | Cc1cc(Oc2ccc(C3CCCN4CCS(=O)(=O)N=C34)cc2)ccc1F (stereo not drawn) [Example 113, 9-[4-(4-fluoro-3-methylphenoxy)phenyl]-3,4,6,7,8,9-hexahydropyrido[2,1-c][1,2,4]thiadiazine 2,2-dioxide]
57% | Cc1cc(C(F)(F)F)ccc1Oc1ccc(C2CCCN3CCS(=O)(=O)N=C23)cc1 (stereo not drawn) [Example 123, 9-{4-[2-methyl-4-(trifluoromethyl)phenoxy]phenyl}-3,4,6,7,8,9-hexahydropyrido[2,1-c][1,2,4]thiadiazine 2,2-dioxide]
77% | O=S1(=O)CCN2CCCC(c3ccc(Oc4ccc(F)cc4)cc3)C2=N1 (stereo not drawn) [Example 357, 9-[4-(4-fluorophenoxy)phenyl]-3,4,6,7,8,9-hexahydropyrido[2,1-c][1,2,4]thiadiazine 2,2-dioxide]
